Patent US20240067651A1 (Biohaven Therapeutics Ltd., priority 2019, published 2024)

Key:
[1] = Caco-2 Permeability Assay; type: in vitro ADME, human; settings: human
Procedure, shortened: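 Bidirectional transport at 37 °C for 90 min, 10 μM donor concentration, with or without Pgp inhibitor, across 21-day Caco-2 monolayers with TEER >600 […] in HEPES-buffered HBSS, pH 7.4. LC-MS/MS of donor and receiver samples gives Papp, B→A/A→B efflux ratio and mass recovery.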

[2] = Stability in Simulated Gastric Fluid (SGF); type: in vitro ADME; set-up: key: % parent compound remaining relative to 0-minute sample
Procedure, shortened: (§1)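 Percent of parent remaining relative to time zero was measured by LC-MS/MS over 0–60 min at 37 °C, 150 rpm. Test compound was 2 μg/mL final in pepsin-containing SGF, pH 1.2, or pancreatin-containing SIF, pH 6.8. Degradation half-life was derived from the log-linear decay where enough points allowed.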

Plasma Stability = type: in vitro ADME, human
Procedure, shortened: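 Parent compound quantified by LC-MS/MS after acetonitrile precipitation, reported as percent of control remaining (triplicate). Incubation: 1 hour, 37° C, fresh human plasma, compound at 1 μM.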

[3] = Stability in Simulated Intestinal Fluid (SIF); type: in vitro ADME; set-up: key: % parent compound remaining relative to 0-minute sample
Procedure, shortened: as §1

[4] = Caco-2, pH 7.4, Caco-2 monolayer
[5] = % remaining at 1 h in simulated gastric fluid
[6] = % remaining at 1 h in human plasma
[7] = % remaining at 1 h in simulated intestinal fluid
[8] = Caco-2, pH 7.4, donor 10 μM, 90 minutes, 37° C., direction not given
[9] = % remaining at 1 h, SGF with pepsin pH 1.2, 2 μg/mL, 37° C.
[10] = % remaining at 1 h, human plasma, 1 μM, 37° C.
[11] = % remaining at 1 h, SIF with pancreatin pH 6.8, 2 μg/mL, 37° C.
[12] = % @ 1 h (remaining) in simulated gastric fluid
[13] = % @ 1 h (remaining) in human plasma
[14] = % @ 1 h (remaining) in simulated intestinal fluid

SGF [2, 5]	human Plasma stability (Plasma Stability; [6])	SIF [3, 7]	Papp at 90 min, 10 µM [1, 8]	SGF [2, 9]	human Plasma stability (Plasma Stability; [10])	SIF [3, 11]	Structure (SMILES)	Papp at 90 min, 10 µM [1, 4]	SGF [2, 12]	human Plasma stability (Plasma Stability; [13])	SIF [3, 14]
85% remaining	3% remaining	17% remaining	–	–	–	–	CC(C)OCCn1c(=S)[nH]c(=O)c2c1ccn2COC(=O)OC1CN(C(=O)OC(C)(C)C)C1 [Example 125]	24.9 ×10⁻⁶ cm/s	–	–	–
100%	2% remaining	67% remaining	–	–	–	–	CC(C)OCCn1c(=S)[nH]c(=O)c2c1ccn2COC(=O)CCC(=O)OC(C)(C)C [Example 126]	13.5 ×10⁻⁶ cm/s	–	–	–
80% remaining	1% remaining	6% remaining	–	–	–	–	CC(C)OCCn1c(=S)[nH]c(=O)c2c1ccn2COC(=O)C1CN(C(=O)OC(C)(C)C)C1 [Example 127]	7.79 ×10⁻⁶ cm/s	–	–	–
61% remaining	4% remaining	64% remaining	–	–	–	–	CC(C)OCCn1c(=S)[nH]c(=O)c2c1ccn2COC(=O)[C@H]1CCN(C(=O)OC(C)(C)C)C1 [Example 130]	17.6 ×10⁻⁶ cm/s	–	–	–
9% remaining	11% remaining	71% remaining	–	–	–	–	CC(C)OCCn1c(=S)n(COC(=O)C2CCN(C(=O)OC(C)(C)C)CC2)c(=O)c2c1ccn2COC(=O)CCC(=O)OC(C)(C)C [Example 132]	4.29 ×10⁻⁶ cm/s	–	–	–
–	–	–	3 ×10⁻⁶ cm/s	62%	21%	82%	CC(C)OCCn1c(=S)n(COC(=O)C(C)(C)C)c(=O)c2c1ccn2COC(=O)C(C)(C)C [Example 143, 2,2-Dimethyl-propionic acid 5-(2,2-dimethyl-propionyloxymethyl)-1-(2-isopropoxy-ethyl)-4-oxo-2-thioxo-1,2,4,5-tetrahydro-pyrrolo[3,2-d]pyrimidin-3-ylmethyl ester]	–	–	–	–

Second part, the compound before the results:

Structure (SMILES)	SGF [2, 5]	human Plasma stability (Plasma Stability; [6])	SIF [3, 7]	Papp at 90 min, 10 µM [1, 8]	SGF [2, 9]	human Plasma stability (Plasma Stability; [10])	SIF [3, 11]	Papp at 90 min, 10 µM [1, 4]	SGF [2, 12]	human Plasma stability (Plasma Stability; [13])	SIF [3, 14]
CC(C)OCCn1c(SCOC(=O)C2CCN(C(=O)OC(C)(C)C)CC2)nc(=O)c2c1ccn2COC(=O)CCC(=O)OC(C)(C)C [Example 131]	99% remaining	1% remaining	75% remaining	–	–	–	–	6.58 ×10⁻⁶ cm/s	–	–	–
CC(C)OCCn1c(SCOC(=O)C2CCNCC2)nc(=O)c2c1ccn2COC(=O)CCC(=O)O [Example 133]	82% remaining	7% remaining	97% remaining	–	–	–	–	< 0.198 ×10⁻⁶ cm/s	–	–	–
CC(C)OCCn1c(=S)[nH]c(=O)c2c1ccn2COC(=O)C[C@H](NC(=O)CCCCCCCCCCC(=O)O)C(=O)O [Example 142, 11-{[(1S)-1-carboxy-3-oxo-3-({4-oxo-1-[2-(propan-2-yloxy)ethyl]-2-sulfanylidene-1H,2H,3H,4H,5H-pyrrolo[3,2-d]pyrimidin-5-yl}methoxy)propyl]carbamoyl}undecanoic acid]	–	–	–	< 0.19 ×10⁻⁶ cm/s	100% remaining	97% remaining	97% remaining	–	–	–	–
CCCC(=O)OCn1ccc2c1c(=O)[nH]c(=S)n2CCOC(C)C [Example 154]	–	–	–	–	–	–	–	4.03 ×10⁻⁶ cm/s	82% @ 1 h	9% @ 1 h	0% @ 1 h
CCCC(=O)OCSc1nc(=O)c2c(ccn2COC(=O)CCC)n1CCOC(C)C [Example 155]	–	–	–	–	–	–	–	2.79 ×10⁻⁶ cm/s	73% @ 1 h	1% @ 1 h	0% @ 1 h
CCC(=O)OCn1ccc2c1c(=O)[nH]c(=S)n2CCOC(C)C [Example 156]	–	–	–	–	–	–	–	6.55 ×10⁻⁶ cm/s	99% @ 1 h	0% @ 1 h	1% @ 1 h
CC(C)OCCn1c(=S)[nH]c(=O)c2c1ccn2COC(=O)c1ccccc1.O=C(O)C(F)(F)F [Example 157]	–	–	–	–	–	–	–	7.3 ×10⁻⁶ cm/s	96% @ 1 h	0% @ 1 h	20% @ 1 h
CC(=O)OCn1ccc2c1c(=O)[nH]c(=S)n2CCOC(C)C [Example 159]	–	–	–	–	–	–	–	8.42 ×10⁻⁶ cm/s	79% @ 1 h	0% @ 1 h	83% @ 1 h
CCCCN(C)C(=O)OCSc1nc(=O)c2[nH]ccc2n1CCOC(C)C.O=C(O)C(F)(F)F [Example 160]	–	–	–	–	–	–	–	15.8 ×10⁻⁶ cm/s	92% @ 1 h	99% @ 1 h	95% @ 1 h
CC(C)CN(C)C(=O)OCSc1nc(=O)c2c(ccn2COC(=O)N(C)CC(C)C)n1CCOC(C)C [Example 161]	–	–	–	–	–	–	–	31.3 ×10⁻⁶ cm/s	80% @ 1 h	99% @ 1 h	80% @ 1 h
CCN(C)C(=O)OCSc1nc(=O)c2[nH]ccc2n1CCOC(C)C [Example 163]	–	–	–	–	–	–	–	4.2 ×10⁻⁶ cm/s	99% @ 1 h	90% @ 1 h	96% @ 1 h
CC(C)OCCn1c(SCOC(=O)N(C)C)nc(=O)c2[nH]ccc21.O=C(O)C(F)(F)F [Example 164]	–	–	–	–	–	–	–	4.2 ×10⁻⁶ cm/s	100% @ 1 h	98% @ 1 h	99% @ 1 h
CC(C)OCCn1c(SCOC(=O)N(C)C)nc(=O)c2c1ccn2COC(=O)N(C)C [Example 165, trifluoroacetic acid [2-({[(dimethylcarbamoyl)oxy]methyl}sulfanyl)-4-oxo-1-[2-(propan-2-yloxy)ethyl]-1H,4H,5H-pyrrolo[3,2-d]pyrimidin-5-yl]methyl N,N-dimethylcarbamate]	–	–	–	–	–	–	–	2.56 ×10⁻⁶ cm/s	84% @ 1 h	97% @ 1 h	99% @ 1 h
CC(C)OCCn1c(SCOC(=O)N(C)C(C)C)nc(=O)c2[nH]ccc21.O=C(O)C(F)(F)F [Example 166]	–	–	–	–	–	–	–	7.08 ×10⁻⁶ cm/s	99% @ 1 h	100% @ 1 h	99% @ 1 h
CC(C)OCCn1c(SCOC(=O)N(C)C(C)(C)C)nc(=O)c2[nH]ccc21.O=C(O)C(F)(F)F [Example 167]	–	–	–	–	–	–	–	17.8 ×10⁻⁶ cm/s	99% @ 1 h	98% @ 1 h	99% @ 1 h
CC(C)OCCn1c(SCOC(=O)N(C)C(C)(C)C)nc(=O)c2c1ccn2COC(=O)N(C)C(C)(C)C.O=C(O)C(F)(F)F [Example 168]	–	–	–	–	–	–	–	28.1 ×10⁻⁶ cm/s	100% @ 1 h	88% @ 1 h	94% @ 1 h
CCN(C)C(=O)OCn1ccc2c1c(=O)nc(SCOC(=O)N(C)C(C)C)n2CCOC(C)C.O=C(O)C(F)(F)F [Example 170]	–	–	–	–	–	–	–	14.1 ×10⁻⁶ cm/s	99% @ 1 h	99% @ 1 h	92% @ 1 h
CC(C)OCCn1c(SCOC(=O)N(C)C(C)C)nc(=O)c2c1ccn2COC(=O)N(C)C(C)C.O=C(O)C(F)(F)F [Example 171]	–	–	–	–	–	–	–	21.7 ×10⁻⁶ cm/s	100% @ 1 h	97% @ 1 h	89% @ 1 h
CC(C)CN(C)C(=O)OCSc1nc(=O)c2[nH]ccc2n1CCOC(C)C [Example 172]	–	–	–	–	–	–	–	23.7 ×10⁻⁶ cm/s	100% @ 1 h	98% @ 1 h	95% @ 1 h
CC(C)OCCn1c(SCOC(=O)N(C)Cc2ccccc2)nc(=O)c2[nH]ccc21.O=C(O)C(F)(F)F [Example 173]	–	–	–	–	–	–	–	20.5 ×10⁻⁶ cm/s	95% @ 1 h	99% @ 1 h	99% @ 1 h
CC(C)OCCn1c(SCOC(=O)N(C)CCc2ccccc2)nc(=O)c2[nH]ccc21.O=C(O)C(F)(F)F [Example 175]	–	–	–	–	–	–	–	30.9 ×10⁻⁶ cm/s	99% @ 1 h	95% @ 1 h	92% @ 1 h
CC(C)OCCn1c(SCOC(=O)N(C)CCc2ccccc2)nc(=O)c2c1ccn2COC(=O)N(C)CCc1ccccc1.O=C(O)C(F)(F)F [Example 176]	–	–	–	–	–	–	–	40.4 ×10⁻⁶ cm/s	86% @ 1 h	99% @ 1 h	100% @ 1 h
C=CCN(C)C(=O)OCSc1nc(=O)c2[nH]ccc2n1CCOC(C)C.O=C(O)C(F)(F)F [Example 177]	–	–	–	–	–	–	–	15.2 ×10⁻⁶ cm/s	99% @ 1 h	99% @ 1 h	89% @ 1 h
C=CCN(C)C(=O)OCSc1nc(=O)c2c(ccn2COC(=O)N(C)CC=C)n1CCOC(C)C.O=C(O)C(F)(F)F [Example 178]	–	–	–	–	–	–	–	19.4 ×10⁻⁶ cm/s	99% @ 1 h	86% @ 1 h	75% @ 1 h
C=CCCN(C)C(=O)OCSc1nc(=O)c2[nH]ccc2n1CCOC(C)C.O=C(O)C(F)(F)F [Example 179]	–	–	–	–	–	–	–	14.5 ×10⁻⁶ cm/s	95% @ 1 h	99% @ 1 h	91% @ 1 h
C=CCCN(C)C(=O)OCSc1nc(=O)c2c(ccn2COC(=O)N(C)CCC=C)n1CCOC(C)C.O=C(O)C(F)(F)F [Example 180]	–	–	–	–	–	–	–	25.9 ×10⁻⁶ cm/s	99% @ 1 h	99% @ 1 h	82% @ 1 h
